Measurements taken from patent publication US12312599B2, “Methods, compositions, and kits for producing beige adipocytes and treating metabolic disorders” (MaineHealth, priority 2018, dated 2025).

Test: Activity of Y-27632 stock solutions
Type: physicochemical
Conditions: water based versus DMSO stock
Method: Note: Only use Y-27632 stock solutions that have been resuspended in DMSO. […] Conduct Mesoderm induction of iPSC in a laminar flow cabinet. • 3. Expand cells in NutriStem hPSC XF Medium overnight and change 100% of the medium without Y-27632 every 24 hours in a laminar flow cabinet for cell culture. When changing media, tilt plate up and allow media to pool at the bottom of wells. Aspirate the pooled medium without touching the surface of the plate. Replace with medium warmed to room temperature by pipetting 2 ml down the side of the wells. Cell Passaging • 1. Expand cell colonies until they have reached 70-80% confluence in high-density areas of the wells. High-density accumulation can occur along the edges of the well as well as the middle. Cells permitted to reach high density will lose their potential for differentiation after multiple passages. • 2. Prior to cell passage, warm cell wash buffer and NutriStem hPSC XF Medium to room temperature. Conduct cell passage in a laminar flow cabinet. • 3. Aspirate NutriStem hPSC XF Medium from wells with vacuum aspirator and wash with PBS without calcium or magnesium. Remove PBS and add 1 ml of ReLeSR reagent to side of well. Agitate plate to allow ReLeSR reagent to spread evenly on the surface. • 4. Aspirate ReLeSR reagent with vacuum aspirator after 30 seconds, which will leave behind a thin film of liquid. […]

Question: For `C[C@@H](N)[C@H]1CC[C@H](C(=O)Nc2ccncc2)CC1` [Y-27632], which “inhibitor activity of water based stock solutions” value is on record?
Answer: The value was “lose significant inhibitor activity”.
